Test results: US20170304288A1, “Formulations of Methionine Aminopeptidase Inhibitors for Treating Infectious Diseases” (Texas Southern University, priority 2013, published 2017)
Values after ≈ are worked out from the molar mass of the structure shown. Like-named read-outs stand apart in the source and are kept apart here. Marks after values point to notes of the source that are not given here.

How the values were obtained:
E. faecalis OG1RF [1] = assay: Liquid-based C. elegans infection model, survival; type: in vivo, Enterococcus faecalis
[2] = system: Pseudomonas aeruginosa (PA14); assay: Screening against P. aeruginosa in LB and SK media
[3] = Pharmacokinetic study in male Sprague Dawley rats; type: in vivo; conditions: rat; for Cmax / clearance / bioavailability / half-life / Vd: male, Sprague Dawley, plasma; for bioavailability: read-out: Fabs (absolute bioavailability); for Vd: read-out: VD (volume of distribution)
Text: Pharmacokinetic evaluation elucidates the fate of compound 5 in living systems. The pharmacokinetic study of compound 5 was also a means to verify the applicability of the LC-MS/MS assay method and the formulations. An adult male Sprague Dawley rat model was the preferred biological system for this experiment based on the similarity to humans in metabolism and minimal interference of hormones with metabolism. Briefly, male Sprague Dawley rats (n=4 for IV group, n=3 for subcutaneous and oral groups each, body weight: 300-350 g) were cannulated through the jugular vein under anesthesia (using a cocktail of ketamine: acepromazine: xylazine at a ratio of 50: 3.3: 3.3 mg/kg). On the following day, the optimal IV co-solvent formulation was diluted five times with normal saline to 1 mg/mL. The formulation for subcutaneous and oral administration was diluted with equal amount of normal saline to 3.75 mg/mL. Each rat was administered a 2 mg/kg IV bolus dose, 10 mg/kg subcutaneous dose or 20 mg/kg oral dose of compound 5. Heparinized blood samples were withdrawn from each rat at 5, 10, 15, 30 mins, 1, 2, 4, 6, 8, 12, 24, 48, 72, 96, 144 h after injection. The blood samples were centrifuged at 14,000 rpm for 6 min and the supernatant plasma obtained and stored at −80° C. until LC-MS/MS analysis for the concentration of compound 5. Urine samples were also collected at 0, 4, 8, 12, and 24 h. The plasma and urine samples were analyzed (within 7 days) using the developed LC/MS/MS method to determine the concentration of compound 5. FIG. 19A-D show plots of the plasma concentration of compound 5 against time.
The pharmacokinetic parameters for each rat were determined with Phoenix WinNonlin 6.3 software (Pharsight Corporation, Mountain View, Calif., USA) a non-compartmental analysis and a two compartment, which best described the fit for the IV bolus administration of compound 5, based on the observed and predicted fits of the plasma concentration versus time plot, the reduction in the sums of squares, and the Akaike's information criterion (AIC) for comparing compartmental models (5).
The weighting scheme of concentration^−2 (Y^−2) was used to determine the model that best fits the individual profiles. […] The plasma concentration -time profiling following 20 mg/Kg oral and 10 mg/kg subcutaneous doses of compound 5 is shown in FIG. 22C.

E. faecalis V583 [4] = assay: Liquid-based C. elegans infection model, survival
[5] = Octanol-water partition co-efficient, shaker method; type: physicochemical; conditions: read-out: experimental M log P
Experimental: The octanol—water partition co-efficient (log P) of compound 5, which measures its hydrophilicity (“water-loving” property) or hydrophobicity (“water-repelling” property), was evaluated using the shaker method. […] This indicate potential water solubility challenges especially for oral administration.

E. faecalis V583 [6] = assay: Assay of E. faecalis inhibition (MIC) in BHI culture
[7] = Stability of co-solvent formulations at storage temperatures; type: physicochemical; conditions: stored at −20° C., 4° C. and 25° C.; Day 3, 7, 14 and 30
Experimental: The stability of the optimal co-solvent formulations was investigated at various storage temperatures. Briefly, aliquots of the optimal co-solvent formulations were stored at different temperatures (−20° C., 4° C. and 25° C.) and analyzed using LC/MS/MS on Day 3, 7, 14 and 30 to determine the amount of compound 5 remaining. The experiment was conducted in triplicates. […] The optimal co-solvent formulations were applied to the pharmacokinetic study of compound 5 in rats (Table 18).

E. faecalis OG1RF [8] = assay: Assay of E. faecalis inhibition (MIC) in BHI culture; conditions: Enterococcus faecalis, read-out: Minimum Inhibitory Concentration MIC30 OG1RF
[9] = iv, 2 mg/kg, Intravenous (Dose: 2 mg/kg), non-compartmental analysis
[10] = iv, 2 mg/kg, Intravenous (Dose: 2 mg/kg), two compartment model
[11] = po, 20 mg/kg, Oral (Dose: 20 mg/kg), non-compartmental analysis
[12] = sc, 10 mg/kg, Subcutaneous (Dose: 10 mg/kg), non-compartmental analysis
[13] = Intravenous (Dose: 2 mg/kg), two compartment model
[14] = Oral (Dose: 20 mg/kg), non-compartmental analysis
[15] = Oral (Dose: 20 mg/kg), two compartment model
[16] = Subcutaneous (Dose: 10 mg/kg), non-compartmental analysis
[17] = Subcutaneous (Dose: 10 mg/kg), two compartment model

Oc1c(Br)cc(Cl)c2cccnc12 [Compound 5, 7-bromo-5-chloroquinolin-8-ol]
survival of the nematodes at Maximum protective concentration (E. faecalis OG1RF [1]; 4×10^−4 μg/mL): ~80% | survival of infected animals compared to tetracycline (E. faecalis OG1RF [1]; 4×10^−5 μg/mL to 4×10^−4 μg/mL): survived just as well, or better, than animals treated with tetracycline | MPC (Minimum Protective Concentration) OG1RF (E. faecalis OG1RF [1]; C. elegans): 4e-11 µg/mL | MmaxPC (Maximum Protective Concentration) OG1RF (E. faecalis OG1RF [1]; C. elegans): 0.0004 µg/mL | MIC ([2]; PA14, read-out: MIC30 P. aeruginosa): < 2.5 µg/mL | inhibition at 2.5 µg/mL ([2]; PA14, read-out: inhibition of P. aeruginosa): ~80% | Cmax [3, 9]: 2560 ± 480 ng/mL | clearance ([3]; iv, 2 mg/kg, Intravenous (Dose: 2 mg/kg), non-compartmental analysis, read-out: Cl- (total body clearance) (converted)): 1.67 mL/min/kg | bioavailability [3, 9]: 100% | half-life ([3]; iv, 2 mg/kg, Intravenous (Dose: 2 mg/kg), non-compartmental analysis, read-out: T1/2 (elimination half-life) (converted)): 176 ± 30.5 h | Vd [3, 9]: 24.6 ± 1.19 L/kg | Cmax [3, 10]: 2600 ± 560 ng/mL | clearance ([3]; iv, 2 mg/kg, Intravenous (Dose: 2 mg/kg), two compartment model, read-out: Cl (total body clearance) (converted)): 2.17 mL/min/kg | half-life ([3]; iv, 2 mg/kg, Intravenous (Dose: 2 mg/kg), two compartment model, read-out: T1/2α (distribution half-life) (converted)): 0.19 ± 0.02 h | half-life ([3]; iv, 2 mg/kg, Intravenous (Dose: 2 mg/kg), two compartment model, read-out: T1/2β (elimination half-life) (converted)): 109 ± 19.4 h | Vd [3, 10]: 21.6 ± 1.32 L/kg | Cmax [3, 11]: 1730 ± 380 ng/mL | bioavailability [3, 11]: 4.6% | half-life ([3]; po, 20 mg/kg, Oral (Dose: 20 mg/kg), non-compartmental analysis, read-out: T1/2 (elimination half-life) (converted)): 8.21 h | Cmax ([3]; po, 20 mg/kg, Oral (Dose: 20 mg/kg), two compartment model): 1670 ± 600 ng/mL | half-life ([3]; po, 20 mg/kg, Oral (Dose: 20 mg/kg), two compartment model, read-out: T1/2abs (absorption half-life) (converted)): 0.14 ± 0.02 h | half-life ([3]; po, 20 mg/kg, Oral (Dose: 20 mg/kg), two compartment model, read-out: T1/2α (distribution half-life) (converted)): 0.33 ± 0.01 h | half-life ([3]; po, 20 mg/kg, Oral (Dose: 20 mg/kg), two compartment model, read-out: T1/2β (elimination half-life) (converted)): 7.05 ± 1.88 h | Cmax [3, 12]: 910 ± 70 ng/mL | bioavailability [3, 12]: 15.7% | half-life ([3]; sc, 10 mg/kg, Subcutaneous (Dose: 10 mg/kg), non-compartmental analysis, read-out: T1/2 (elimination half-life) (converted)): 36.8 ± 2.87 h | Cmax ([3]; sc, 10 mg/kg, Subcutaneous (Dose: 10 mg/kg), two compartment model): 970 ± 50 ng/mL | half-life ([3]; sc, 10 mg/kg, Subcutaneous (Dose: 10 mg/kg), two compartment model, read-out: T1/2abs (absorption half-life) (converted)): 0.376 ± 0.01 h | half-life ([3]; sc, 10 mg/kg, Subcutaneous (Dose: 10 mg/kg), two compartment model, read-out: T1/2α (distribution half-life) (converted)): 1.66 ± 0.65 h | half-life ([3]; sc, 10 mg/kg, Subcutaneous (Dose: 10 mg/kg), two compartment model, read-out: T1/2β (elimination half-life) (converted)): 51.5 ± 16.1 h | AUC0-∞ ([3]; Intravenous (Dose: 2 mg/kg), non-compartmental analysis): 10.3 ± 1 mg/L/h | A (coefficient of α-phase) [3, 13]: 2.51 ± 0.56 mg/L | AUC0-∞ [3, 13]: 15.7 ± 1.96 mg/L/h | B (coefficient of β-phase) [3, 13]: 0.09 ± 0.01 mg/L | AUC0-∞ [3, 14]: 4.73 ± 0.97^a mg/L/hr | Cl- (total body clearance) [3, 14]: 4.72 ± 1.20 L/kg/h | VD (volume of distribution) [3, 14]: 63.9 ± 34.3 L/kg | Fabs (absolute bioavailability) ([3]; Oral (Dose: 20 mg/kg), non-compartmental analysis, 20 mg/kg): 4.59 ± 1.33% | A (coefficient of α-phase) [3, 15]: 4.29 ± 0.42 mg/L | AUC0-∞ [3, 15]: 4.27 ± 1.69 mg/L/h | B (coefficient of β-phase) [3, 15]: 0.37 ± 0.24 mg/L | Cl (total body clearance) [3, 15]: 92.3 ± 36.3 mL/min/kg | VD (volume of distribution) [3, 15]: 34.8 ± 21.8 L/kg | AUC0-∞ [3, 16]: 8.14 ± 0.23^c mg/L/hr | Cl- (total body clearance) [3, 16]: 1.23 ± 0.04^c L/kg/hr | VD (volume of distribution) [3, 16]: 65.0 ± 3.77^c L/kg | A (coefficient of α-phase) [3, 17]: 2.05 ± 0.57 mg/L | AUC0-∞ [3, 17]: 8.68 ± 0.92 mg/L/h | B (coefficient of β-phase) [3, 17]: 0.08 ± 0.02 mg/L | Cl (total body clearance) [3, 17]: 19.5 ± 2 mL/min/kg | VD (volume of distribution) [3, 17]: 45.8 ± 5.95 L/kg | MPC (Minimum Protective Concentration) V583 (E. faecalis V583 [4]): 4e-12 µg/mL | logP [5]: 3.03 ± 0.04 | Minimum Inhibitory Concentration MIC30 V583 (E. faecalis V583 [6]): 0.25 to 0.50 µg/mL | MIC (E. faecalis V583 [6]; Enterococcus faecalis, V583, read-out: Minimum Inhibitory Concentration MIC30 V583): 0.25 to 0.5 µg/mL (≈ 0.967 to 1.93 µM) | stability in the optimal co-solvent formulations [7]: stable in the co-solvent formulations for up to one month | MIC (E. faecalis OG1RF [8]): 2.5 to 5 µg/mL (≈ 9.67 to 19.3 µM)
